Consider 46 compounds from patent publication US10034886B2, “GLP-1 receptor modulators” (Celgene International II SÀRL, priority 2014, dated 2018).

The assay concerns the target T1, GLP-1R (Homo sapiens, UniProt P43220).
T1 construct: host or cells: GLP-1R CRE-bla CHO-K1 cells
The assay can be described thus: EC20 GLP-1(9-36) PAM cAMP assay: dose response of compound in the presence of fixed concentration of GLP-1(9-36). The format is cell-based. The note with it: GLP-1R CRE-bla CHO-K1 cells, read-out: EC20 GLP-1(9-36) PAM EC50. Summed up:
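Positive allosteric modulation read as cAMP accumulation: compound titrations (12 points) combined with an EC20 level of GLP-1(9-36) on CHO-K1 GLP-1R CRE-bla cells, IBMX present, 30 min, 37 °C, pH 7.4 buffer. Luminescence converted to cAMP via standards; non-linear fit gave EC50 and Emax.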

[1] abbreviates: dose response of compound in presence of fixed concentration of GLP-1(9-36).
The mark [2] stands for this setting: compound dose response with fixed concentration of GLP-1(9-36).

Read-outs that look alike come from different tables or passages of the source.

T1 sequence (P43220 24-463): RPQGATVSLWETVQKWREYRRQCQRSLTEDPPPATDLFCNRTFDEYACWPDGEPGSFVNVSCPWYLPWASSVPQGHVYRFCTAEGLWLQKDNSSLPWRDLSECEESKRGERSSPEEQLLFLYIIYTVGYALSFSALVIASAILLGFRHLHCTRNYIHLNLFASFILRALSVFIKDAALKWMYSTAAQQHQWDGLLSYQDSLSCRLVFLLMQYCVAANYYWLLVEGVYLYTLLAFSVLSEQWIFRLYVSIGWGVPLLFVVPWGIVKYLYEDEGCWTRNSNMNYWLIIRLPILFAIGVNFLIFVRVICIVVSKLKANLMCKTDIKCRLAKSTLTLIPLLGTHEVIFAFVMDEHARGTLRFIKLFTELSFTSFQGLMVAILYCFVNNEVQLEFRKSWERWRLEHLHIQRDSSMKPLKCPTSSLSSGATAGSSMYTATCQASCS
T1 sequence (P01275 100-127 partner limits assumed): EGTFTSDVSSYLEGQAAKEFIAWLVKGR

Consider `CCCCCCCOc1ccc(-c2cnc(-c3ccc(C[C@H](NC(=O)c4cnc(C(C)(C)C)nc4)C(=O)N4CC(C(=O)O)C4)cc3)nc2)cc1` [Compound 1118], for which the EC50 under setting [1] is 800 to 2500 nM.

As for `CCC[C@H]1CC[C@H](C2CCN(c3cnc(-c4ccc(C[C@H](NC(=O)c5ccc(C(C)(C)C)s5)C(=O)NC5(C(=O)O)CC5)cc4)nc3)CC2)CC1` [Compound 1453], under setting [2], the EC50 is < 800 nM.

Consider `C[C@@H](NC(=O)[C@H](Cc1ccc(-c2ncc(-c3ccc4c(c3)C(C)(C)c3ccccc3-4)cn2)cc1)NC(=O)c1ccc(C(C)(C)C)s1)C(=O)O` [Compound 1304], for which, under setting [2], the EC50 was 800 to 2500 nM.

As for `CCCCCCCOc1ccc(-c2cnc(-c3ccc(C[C@H](NC(=O)c4ccc(CCCC)cc4)C(=O)N[C@H](C)C(=O)O)cc3)nc2)cc1` [Compound 820], the EC50 under setting [1] was in the range of 2500 to 5000 nM.

In the case of `CC(C)(C)c1ccc(C(=O)N[C@@H](Cc2ccc(-c3ncc(-c4ccc(-c5ccc(C6CCCC6)cc5)cc4F)cn3)cc2)C(=O)N2CC(C(=O)O)C2)s1` [Compound 1211], the EC50 under setting [2] was < 800 nM.

As for `CCCCCCCOc1ccc(-c2cnc(-c3ccc(C[C@H](NC(=O)c4ccc(C(C)(C)C)s4)C(=O)O)cc3)nc2)nc1` [Compound 1062, (S)-2-(5-(tert-butyl)thiophene-2-carboxamido)-3-(4-(5-(5-(heptyloxy)pyridin-2-yl)pyrimidin-2-yl)phenyl)propanoic acid], the EC50 under setting [1] was in the range of 800 to 2500 nM.

On to `CCCCCCCOc1ccc(-c2cnc(-c3ccc(C[C@H](NC(=O)c4ccc(CC(C)C)s4)C(=O)N4CC[C@H](C(=O)O)C4)cc3)nc2)cc1` [Compound 847], for which the EC50 under setting [1] lay in the range of 2500 to 5000 nM.

As to `CCC[C@H]1CC[C@H](C2CCN(c3cnc(-c4ccc(C[C@H](NC(=O)c5ccc(C(C)(C)C)s5)C(=O)NC(C)(C)C(=O)O)cc4)nc3)CC2)CC1` [Compound 1466], the EC50 under setting [2] was < 800 nM.

As for `CCCCCCCOc1ccc(-c2cnc(-c3ccc(C[C@H](NC(=O)c4ccc(C(C)(C)C)s4)C(=O)NC(C(=O)O)C(O)c4cnccn4)cc3)nc2)cc1` (stereo partly shown) [Compound 917], the EC50 under setting [1] lay within 800 to 2500 nM.

In the case of `C[C@@H](NC(=O)[C@H](Cc1ccc(-c2ncc(-c3ccc(-c4ccccc4)nc3)cn2)cc1)NC(=O)c1ccc(C(C)(C)C)s1)C(=O)O` [Compound 1303], the EC50 under setting [2] was in the range of 5000 to 10000 nM.

`CCCCCCCOc1ccc(-c2cnc(-c3ccc(C[C@H](NC(=O)c4ccc(C(C)(C)C)cc4)C(=O)N4CC(O)CC(C(=O)O)C4)cc3)nc2)cc1` (stereo partly shown) [Compound 662]: the EC50 under setting [1] was < 800 nM.

With `Cc1cc(-c2ccc(-c3cnc(-c4ccc(C[C@H](NC(=O)c5ccc(C(C)(C)C)s5)C(=O)N5CC(C(=O)O)C5)cc4)nc3)c(F)c2)ccc1C(F)(F)F` [Compound 1225], the EC50 under setting [2] was < 800 nM.

On to `CCCCCCOc1cccc(-c2noc(-c3cnc(-c4ccc(C[C@H](NC(=O)c5ccc(C(C)(C)C)cc5)C(=O)NCCC(=O)O)cc4)nc3)n2)c1` [Compound 760], for which the EC50 under setting [1] was in the range of 800 to 2500 nM.

For `CCCCCCCOc1ccc(-c2cnc(-c3ccc(C[C@H](NC(=O)c4ccc(C(C)(C)C)s4)C(=O)N[C@@H](CC(=O)Nc4nnn[nH]4)C(=O)O)cc3)nc2)cc1` [Compound 522], the EC50 under setting [1] lay within 800 to 2500 nM.

`CCCc1ccc(C2CN(c3cnc(-c4ccc(CC(NC(=O)c5ccc(C(C)(C)C)s5)C(=O)N5CC(C(=O)O)C5)cc4)nc3)C2)cc1` (stereo not shown) [Compound 1417]: under setting [2], the EC50 was in the range of 800 to 2500 nM.

`C[C@@H](NC(=O)[C@H](Cc1ccc(-c2ncc(/C=C\CCCc3ccccc3)cn2)cc1)NC(=O)c1ccc(C(C)(C)C)s1)C(=O)O` [Compound 1051]: under setting [1], the EC50 lay within 5000 to 10000 nM.

Turning to `CCCCCCCOc1ccc(-c2nnc(-c3ccc(CC(NC(=O)c4ccc(C(C)(C)C)cc4)C(=O)O)cc3F)s2)cc1` (stereo in doubt) [Compound 1552, (S)-2-(4-(tert-butyl)benzamido)-3-(3-fluoro-4-(5-(4-(heptyloxy)phenyl)-1,3,4-thiadiazol-2-yl)phenyl)propanoic acid], the EC50 under setting [2] was in the range of 800 to 2500 nM.

As for `CCCCCCCOc1ccc(-c2cnc(-c3ccc(C[C@H](NC(=O)c4ccc(C(C)(C)C)c(OC)c4)C(=O)N4CCC[C@H]4C(=O)O)cc3)nc2)cc1` [Compound 1081], under setting [1], the EC50 is 800 to 2500 nM.

Turning to `CC(C)COc1ccc(-c2cnc(-c3ccc(C[C@H](NC(=O)c4ccc(C(C)(C)C)cc4)C(=O)NCCC(=O)O)cc3)nc2)cc1` [Compound 685], the EC50 under setting [1] was 2500 to 5000 nM.

As to `CC(C)(C)CCCOc1ccc(-c2cnc(-c3ccc(C[C@H](NC(=O)c4ccc(C(C)(C)C)s4)C(=O)N4CC(C(=O)O)C4)cc3)nc2)cc1` [Compound 944], the EC50 under setting [1] is < 800 nM.

Consider `CC(C)c1ccc(-c2ccc(-c3cnc(-c4ccc(C[C@H](NC(=O)c5ccc(C(C)(C)C)s5)C(=O)N5CC(C(=O)O)C5)cc4)nc3)cc2)cc1` [Compound 1395], for which, under setting [2], the EC50 is < 800 nM.

For the compound `CCCCCCCOc1ccc(-c2cnc(-c3ccc(C[C@H](NC(=O)c4ccc(C(C)(C)C)cc4)C(=O)NC(C(=O)O)c4c(C)n[nH]c4C)cc3)nc2)cc1` (stereo partly shown) [Compound 549], the EC50 under setting [1] was < 800 nM.

Take `CCCCOc1ccc(-c2cnc(-c3ccc(C[C@H](NC(=O)c4ccc(C(C)(C)C)s4)C(=O)N[C@H](C)C(=O)O)cc3)nc2)cc1F` [Compound 1044]: the EC50 under setting [1] was 2500 to 5000 nM.

`CC(C)CCCCOc1ccc(-c2cnc(-c3ccc(C[C@H](NC(=O)c4ccc(C(C)(C)C)cc4)C(=O)N[C@H](C)C(=O)O)cc3)nc2)cc1` [Compound 792]: the EC50 under setting [1] lay within 800 to 2500 nM.

Turning to `C[C@@H](NC(=O)[C@H](Cc1ccc(-c2ncc(-c3ccc(N(c4ccccc4)c4ccccc4)cc3)cn2)cc1)NC(=O)c1ccc(C(C)(C)C)s1)C(=O)O` [Compound 1015], the EC50 under setting [1] is 800 to 2500 nM.

As for `CCCCCCCOc1ccc(-c2cnc(-c3ccc(C[C@H](NC(=O)c4ccc(C(C)(C)C)s4)C(=O)N4CC[C@H](C(=O)NS(=O)(=O)CC(F)(F)F)C4)cc3)nc2)cc1` [Compound 887], under setting [1], the EC50 is < 800 nM.

As to `CCCCCCCOc1ccc(-c2cnc(-c3ccc(C[C@H](NC(=O)c4ccc(OCCC)cc4)C(=O)N4CC[C@H](C(=O)O)C4)cc3)nc2)cc1` [Compound 1097], the EC50 under setting [1] is 800 to 2500 nM.

As for `CCC(C)(C)c1ccc(C(=O)N[C@@H](Cc2ccc(-c3ncc(-c4ccc(OCCCC(C)C)cc4)cn3)cc2)C(=O)N2CC(C(=O)O)C2)cc1` [Compound 1237], the EC50 under setting [2] was in the range of 2500 to 5000 nM.

Consider `CCCCCCCOc1ccc(-c2cnc(-c3ccc(C[C@H](NC(=O)c4ccc(C(C)(C)C)cc4)C(=O)NC(CN(C)C)C(=O)O)cc3)nc2)cc1` (stereo partly shown) [Compound 447], for which, under setting [1], the EC50 fell in the range of 800 to 2500 nM.

With `CC(C)(C)c1ccc(C(=O)N[C@@H](Cc2ccc(-c3ncc(-c4ccc([C@H]5CC[C@@H](C)CC5)cc4)cn3)cc2)C(=O)N2CC(C(=O)O)C2)s1` [Compound 1177], under setting [1], the EC50 was < 800 nM.

With `CCCCCCCOc1ccc(-c2cnc(-c3ccc(C[C@H](NC(=O)c4ccc(C(C)(C)C)s4)C(=O)N[C@H](Cc4ccccc4)C(=O)O)cc3)nc2)cc1` [Compound 647], under setting [1], the EC50 is < 800 nM.

As for `CCCCCCCOc1ccc(-c2cnc(-c3ccc(C[C@H](NC(=O)c4ccc(OCCC)cc4)C(=O)N[C@H](C)C(=O)O)cc3)nc2)cc1` [Compound 982], the concentration giving a half-maximal response (EC50) under setting [1] fell in the range of 5000 to 10000 nM.

With `CCCCCCCOc1ccc(-c2cnc(-c3ccc(C[C@H](NC(=O)c4ccc(C(C)(C)C)s4)C(=O)N[C@@H](Cc4cccnc4)C(=O)O)cc3)nc2)cc1` [Compound 616], the EC50 under setting [1] was 800 to 2500 nM.

In the case of `CCCCCCCOc1ccc(-c2cnc(-c3ccc(C[C@H](NC(=O)c4ccc(C(C)(C)C)s4)C(=O)N4CC(C(=O)O)C4)cc3)nc2)nc1` [Compound 1066], the EC50 under setting [1] lay in the range of 800 to 2500 nM.

With `CCCCCCCOc1ccc(-c2cnc(-c3ccc(C[C@H](NC(=O)c4ccc(C(C)(C)C)cc4)C(=O)N[C@H](CO)C(=O)O)cc3)nc2)cc1` [Compound 417], the EC50 under setting [1] was < 800 nM.

Consider `C[C@@H](NC(=O)[C@H](Cc1ccc(-c2ncc(-c3ccc(N4CCCCC4)cc3)cn2)cc1)NC(=O)c1ccc(C(C)(C)C)s1)C(=O)O` [Compound 740], for which the EC50 under setting [1] fell in the range of 2500 to 5000 nM.

In the case of `CCCCCCCOc1ccc(-c2cnc(-c3ccc(C[C@H](NC(=O)c4ccc(C(C)(C)C)cc4)C(=O)NC(C(=O)O)c4cccc(C(F)(F)F)c4)cc3)nc2)cc1` (stereo partly shown) [Compound 545], under setting [1], the EC50 is < 800 nM.

Consider `CC[C@H]1CC[C@H](c2ccc(-c3cnc(-c4ccc(C[C@H](NC(=O)c5cnc(C6CC6)nc5)C(=O)O)cc4)nc3)cc2)CC1` [Compound 1391], for which, under setting [2], the EC50 is < 800 nM.

Consider `CC[C@H]1CC[C@H](c2ccc(-c3cnc(-c4ccc(C[C@H](NC(=O)c5ccc(C)s5)C(=O)O)cc4)nc3)cc2)CC1` [Compound 1385], for which the EC50 under setting [2] lay within 5000 to 10000 nM.

As to `CCCCCCCOc1ccc(-c2cnc(-c3ccc(CC(NC(=O)c4ccc(C(C)(C)C)s4)C(=O)N[C@@H](CCSC)C(=O)O)cc3)nc2)cc1` (stereo partly shown) [Compound 416], the EC50 under setting [1] was < 800 nM.

Consider `CCCCCCCOc1ccc(-c2cnc(-c3ccc(C[C@H](NC(=O)c4ccc(C(C)(C)C)cc4C)C(=O)N4CC[C@H](C(=O)O)C4)cc3)nc2)cc1` [Compound 868], for which the EC50 under setting [1] is 800 to 2500 nM.

`CCCCCCCOc1ccc(-c2cnc(-c3ccc(C[C@H](NC(=O)c4ccc(C(C)(C)C)s4)C(=O)N[C@H]4C[C@@H](C(=O)O)C4)cc3)nc2)cc1` [Compound 872]: the EC50 under setting [1] was 800 to 2500 nM.

As to `CC(C)(C)c1ccc(C(=O)N[C@@H](Cc2ccc(-c3ncc(-c4ccc(-c5ccccc5OC(F)(F)F)cc4F)cn3)cc2)C(=O)N2CC(C(=O)O)C2)s1` [Compound 1224], under setting [2], the EC50 is < 800 nM.

For `CCCCCCCOc1ccc(-c2cnc(-c3ccc(C[C@H](NC(=O)c4ccc(CC)cc4)C(=O)N4CC[C@H](C(=O)O)C4)cc3)nc2)cc1` [Compound 855], under setting [1], the EC50 was in the range of 800 to 2500 nM.

Consider `CC(C)(C)COc1ccc(-c2cnc(-c3ccc(C[C@H](NC(=O)c4ccc(C(C)(C)C)s4)C(=O)N4CC[C@H](C(=O)O)C4)cc3)nc2)cc1` [Compound 767], for which the EC50 under setting [1] is 2500 to 5000 nM.

In the case of `CCCCCCCOc1ccc(-c2cnc(-c3ccc(C[C@H](NC(=O)c4ccc(C(C)(C)C)cc4)C(=O)N[C@@H](CC(=O)Nc4nnn[nH]4)C(=O)O)cc3)nc2)cc1` [Compound 510], the EC50 under setting [1] is 2500 to 5000 nM.
